# Measured values as given in ChEMBL document CHEMBL5442379, “ASAP - SARS-CoV-2 nsp3 macrodomain single point” (2024).
# Target: Replicase polyprotein 1ab (Severe acute respiratory syndrome coronavirus 2) (UniProt P0DTD1)
# Description: Functional biochemical assay to identify treatments for viral infectious disease that targets SARS-COV-2 nsp3 macrodomain, whereby the mechanism of action displaces an ADP-Ribose modified peptide from the binding site. Utilizing a time-resolved fluorescence method to measure binding by reading the emitted fluorescence intensity in two wavelengths.
compound,measurement,setting,value
c1cc(-c2nnc(Sc3ncnc4[nH]ccc34)[nH]2)ccn1,inhibition,"Concentration 50.0 uM, Number of replicates 2.0, Standard deviation 4.573 %",10.7%
same,inhibition,"Concentration 50.0 uM, Number of replicates 2.0, Standard deviation 8.715 %",5.47%
same,inhibition,"Concentration 100.0 uM, Number of replicates 2.0, Standard deviation 31.914 %",3.32%
c1cc(CNc2ncnc3nc[nH]c23)n2ncnc2c1,inhibition,"Concentration 50.0 uM, Number of replicates 2.0, Standard deviation 1.124 %",1.35%
same,inhibition,"Concentration 100.0 uM, Number of replicates 2.0, Standard deviation 5.338 %",10%
O=C(CCN(Cc1cccc(Cl)c1)C(=O)c1ccc(O)cc1)N1CCNCC1,inhibition,"Concentration 49.75 uM, Number of replicates 2.0, Standard deviation 5.17 %",-0.343%
same,inhibition,"Concentration 99.5 uM, Number of replicates 2.0, Standard deviation 10.002 %",-1.63%
OC[C@@]1(Cc2ccc(F)cc2)CCN(c2ncnc3[nH]ccc23)C1,inhibition,"Concentration 50.0 uM, Number of replicates 2.0, Standard deviation 2.787 %",5.07%
Cc1[nH]c2ncnc(NC(=O)C3CC=CC3)c2c1C,inhibition,"Concentration 50.0 uM, Number of replicates 2.0, Standard deviation 5.54 %",73.1%
O=C(Nc1cnc2[nH]ncc2c1)c1cccc(-c2noc(C(F)(F)F)n2)c1,inhibition,"Concentration 50.0 uM, Number of replicates 2.0, Standard deviation 7.077 %",-0.675%
same,inhibition,"Concentration 100.0 uM, Number of replicates 2.0, Standard deviation 3.401 %",-1.62%
c1ccc2sc(CNc3ncnc4[nH]ccc34)nc2c1,inhibition,"Concentration 50.0 uM, Number of replicates 2.0, Standard deviation 5.906 %",-0.671%
Cc1nc(C)c(CC(=O)Nc2cnc3[nH]ncc3c2)c(=O)[nH]1,inhibition,"Concentration 50.0 uM, Number of replicates 2.0, Standard deviation 0.296 %",4.83%
Cn1ncnc1C(=O)N1CCC(c2ccn3ncc(C(=O)N4CCCCC4)c3c2)CC1,inhibition,"Concentration 49.75 uM, Number of replicates 2.0, Standard deviation 0.221 %",2.38%
same,inhibition,"Concentration 99.5 uM, Number of replicates 2.0, Standard deviation 2.086 %",20.4%
Cc1[nH]nc(C(=O)N2CCC(c3ccn4ncc(C(=O)N5CCCCC5)c4c3)CC2)c1C,inhibition,"Concentration 49.75 uM, Number of replicates 2.0, Standard deviation 4.553 %",18%
same,inhibition,"Concentration 99.5 uM, Number of replicates 2.0, Standard deviation 2.151 %",33.8%
c1ccc2sc([C@@H]3CCCN(c4ncnc5[nH]ccc45)C3)nc2c1,inhibition,"Concentration 50.0 uM, Number of replicates 2.0, Standard deviation 1.364 %",-0.779%
O=C(c1cn2ncccc2n1)N1CCC(c2ccn3ncc(C(=O)N4CCCCC4)c3c2)CC1,inhibition,"Concentration 49.75 uM, Number of replicates 2.0, Standard deviation 0.525 %",30.7%
same,inhibition,"Concentration 99.5 uM, Number of replicates 2.0, Standard deviation 6.296 %",53.8%
c1ccc([C@@H](CNc2ncnc3n[nH]cc23)N2CCOCC2)cc1,inhibition,"Concentration 50.0 uM, Number of replicates 2.0, Standard deviation 1.427 %",-0.781%
CCCNC(=O)[C@H]1CCCN(c2ncnc3[nH]ccc23)C1,inhibition,"Concentration 50.0 uM, Number of replicates 2.0, Standard deviation 0.927 %",-4.36%
CC(C)[C@@H](Nc1ncnc2[nH]ccc12)C(F)F,inhibition,"Concentration 49.75 uM, Number of replicates 2.0, Standard deviation 1.25 %",81.6%
same,inhibition,"Concentration 99.5 uM, Number of replicates 2.0, Standard deviation 1.983 %",91.7%
O=C(O)c1cscc1C(=O)N1CCC(c2ccn3ncc(C(=O)N4CCCCC4)c3c2)CC1,inhibition,"Concentration 50.0 uM, Number of replicates 2.0, Standard deviation 2.729 %",47.7%
same,inhibition,"Concentration 100.0 uM, Number of replicates 2.0, Standard deviation 0.311 %",66.7%
Cc1ncc(NCc2ncn(C)c2Cl)cc1C(N)=O,inhibition,"Concentration 50.0 uM, Number of replicates 2.0, Standard deviation 1.923 %",2.41%
Cc1cncc(NCc2csc(-c3ccccn3)n2)c1,inhibition,"Concentration 50.0 uM, Number of replicates 2.0, Standard deviation 0.194 %",-5.02%
Cn1nc(C(=O)O)cc1C(=O)N1CCC(c2ccn3ncc(C(=O)N4CCCCC4)c3c2)CC1,inhibition,"Concentration 49.75 uM, Number of replicates 2.0, Standard deviation 5.569 %",34.2%
same,inhibition,"Concentration 99.5 uM, Number of replicates 2.0, Standard deviation 2.729 %",52.7%
CC(C)(CCNc1ncnc2[nH]ccc12)S(C)(=O)=O,inhibition,"Concentration 50.0 uM, Number of replicates 2.0, Standard deviation 3.874 %",0.75%
Cc1[nH]c2ncnc(NC(=O)c3ccncc3Cl)c2c1C,inhibition,"Concentration 50.0 uM, Number of replicates 2.0, Standard deviation 1.372 %",69.6%
same,inhibition,"Concentration 100.0 uM, Number of replicates 2.0, Standard deviation 0.621 %",85.6%
O=C(c1ccncc1)N1CCC(c2ccn3ncc(C(=O)N4CCCCC4)c3c2)CC1,inhibition,"Concentration 49.75 uM, Number of replicates 2.0, Standard deviation 1.966 %",10.8%
same,inhibition,"Concentration 99.5 uM, Number of replicates 2.0, Standard deviation 0.415 %",26.5%
O=C(Nc1cnn(C2CCNCC2)c1)c1ncnc2[nH]ccc12,inhibition,"Concentration 50.0 uM, Number of replicates 2.0, Standard deviation 5.148 %",-1.9%
Cn1c(C(=O)N(CCC(=O)N2CCNCC2)Cc2cccc(Cl)c2)cnc1O,inhibition,"Concentration 49.75 uM, Number of replicates 2.0, Standard deviation 0.601 %",-4.76%
same,inhibition,"Concentration 99.5 uM, Number of replicates 2.0, Standard deviation 2.256 %",-2.76%
COc1nc2cc(NC(=O)c3cc(N4CCNC4=O)ccc3F)ccc2[nH]1,inhibition,"Concentration 50.0 uM, Number of replicates 2.0, Standard deviation 4.804 %",-4.21%
Cn1nc(NC(=O)c2cc(-c3ccco3)[nH]n2)c2nccnc21,inhibition,"Concentration 50.0 uM, Number of replicates 2.0, Standard deviation 0.879 %",-5.4%
O=C(OCC(Br)=C1CCOCC1)c1ncnc2[nH]ccc12,inhibition,"Concentration 50.0 uM, Number of replicates 2.0, Standard deviation 2.217 %",-5.36%
O=C(NCc1ncccn1)c1cnn2ccc(C3CCN(C(=O)c4ccccc4)CC3)cc12,inhibition,"Concentration 49.75 uM, Number of replicates 2.0, Standard deviation 2.653 %",-0.074%
same,inhibition,"Concentration 99.5 uM, Number of replicates 2.0, Standard deviation 0.514 %",-6.66%
O=C1CCC[C@@H](C(=O)N(CCC(=O)N2CCNCC2)Cc2cccc(Cl)c2)N1,inhibition,"Concentration 49.75 uM, Number of replicates 2.0, Standard deviation 3.727 %",2.42%
same,inhibition,"Concentration 99.5 uM, Number of replicates 2.0, Standard deviation 3.7 %",-3.31%
CC(C)NC(=O)[C@@H]1CCCN(c2ncnc3[nH]ccc23)C1,inhibition,"Concentration 50.0 uM, Number of replicates 2.0, Standard deviation 0.005 %",1.78%
O=C(Cc1ccon1)Nc1ncnc2[nH]cnc12,inhibition,"Concentration 50.0 uM, Number of replicates 2.0, Standard deviation 0.023 %",-1.61%
Oc1ccccc1CNc1ncnc2cccnc12,inhibition,"Concentration 49.75 uM, Number of replicates 2.0, Standard deviation 0.51 %",-1.84%
same,inhibition,"Concentration 99.5 uM, Number of replicates 2.0, Standard deviation 1.128 %",-0.535%
CC(C)[C@@H](CCN(C)C(=O)c1cc2c(s1)CC[C@H](C)C2)Nc1ncnc2[nH]ccc12,inhibition,"Concentration 49.75 uM, Number of replicates 2.0, Standard deviation 6.617 %",-9.68%
Cn1cc(Br)c(CNC(=O)c2ccc(NC(=O)Nc3ccccc3)cc2)n1,inhibition,"Concentration 49.75 uM, Number of replicates 2.0, Standard deviation 4.908 %",4.31%
same,inhibition,"Concentration 99.5 uM, Number of replicates 2.0, Standard deviation 1.253 %",1.2%
O=C(C[C@@H](NC(=O)c1ncnc2[nH]ccc12)C1CC1)NCc1ccc(C(=O)O)cc1,inhibition,"Concentration 49.75 uM, Number of replicates 2.0, Standard deviation 1.213 %",-9.86%
same,inhibition,"Concentration 99.5 uM, Number of replicates 2.0, Standard deviation 0.076 %",0.768%
O=S(=O)(Nc1cnc2[nH]ncc2c1)c1cnn(C2CCCC2)c1,inhibition,"Concentration 50.0 uM, Number of replicates 2.0, Standard deviation 0.633 %",0.415%
CC(C)n1nccc1NC(=O)c1ccc(NC(=O)Nc2ccccc2)cc1,inhibition,"Concentration 49.75 uM, Number of replicates 2.0, Standard deviation 2.48 %",-2%
same,inhibition,"Concentration 99.5 uM, Number of replicates 2.0, Standard deviation 1.778 %",-0.924%
O=C(OCc1ncccc1Cl)c1ncnc2[nH]ccc12,inhibition,"Concentration 50.0 uM, Number of replicates 2.0, Standard deviation 2.408 %",5.06%
CC(=O)Nc1ccc(S(=O)(=O)NNc2ncnc3sccc23)cc1,inhibition,"Concentration 50.0 uM, Number of replicates 2.0, Standard deviation 2.273 %",5.36%
Cc1noc([C@@H]2CCCN(c3ncnc4[nH]ccc34)C2)n1,inhibition,"Concentration 50.0 uM, Number of replicates 2.0, Standard deviation 1.725 %",1.92%
CC(C)[C@H]1CNC(=O)CN1c1ncnc2[nH]ccc12,inhibition,"Concentration 49.75 uM, Number of replicates 2.0, Standard deviation 0.296 %",6.84%
same,inhibition,"Concentration 99.5 uM, Number of replicates 2.0, Standard deviation 2.93 %",17.6%
O=C(Cn1c(=O)[nH]c2ccccc21)Nc1cnc2[nH]ncc2c1,inhibition,"Concentration 50.0 uM, Number of replicates 2.0, Standard deviation 2.142 %",1.78%
CN1CCC[C@@H]1CNC(=O)c1cnn2ccc(C3CCN(C(=O)c4ccccc4)CC3)cc12,inhibition,"Concentration 49.75 uM, Number of replicates 2.0, Standard deviation 1.011 %",-4.43%
same,inhibition,"Concentration 99.5 uM, Number of replicates 2.0, Standard deviation 3.797 %",1.5%
CN(C)[C@@H]1CCCN(C(=O)c2cnc3c(c2)c(=O)[nH]c(=O)n3C)CC1,inhibition,"Concentration 50.0 uM, Number of replicates 2.0, Standard deviation 1.745 %",-8.97%
O=C(c1cnc[nH]1)N1CCC(c2ccn3ncc(C(=O)N4CCCCC4)c3c2)CC1,inhibition,"Concentration 49.75 uM, Number of replicates 2.0, Standard deviation 1.741 %",20.3%
same,inhibition,"Concentration 99.5 uM, Number of replicates 2.0, Standard deviation 2.598 %",35.3%
C[C@@H](Nc1ncnc2[nH]ccc12)c1cnn(CC2CCC2)c1,inhibition,"Concentration 49.75 uM, Number of replicates 2.0, Standard deviation 1.153 %",-0.451%
same,inhibition,"Concentration 99.5 uM, Number of replicates 2.0, Standard deviation 1.366 %",4.9%
O=C(Nc1cnc2[nH]ncc2c1)c1ccc(Oc2cccc(Br)c2)nc1,inhibition,"Concentration 50.0 uM, Number of replicates 2.0, Standard deviation 1.64 %",-0.183%
Cn1nncc1C(=O)N(CCC(=O)N1CCNCC1)Cc1cccc(Cl)c1,inhibition,"Concentration 49.75 uM, Number of replicates 2.0, Standard deviation 1.263 %",0.447%
same,inhibition,"Concentration 99.5 uM, Number of replicates 2.0, Standard deviation 1.735 %",-2.15%
NS(=O)(=O)N1CCCN(c2ncnc3[nH]c(I)cc23)CC1,inhibition,"Concentration 50.0 uM, Number of replicates 2.0, Standard deviation 1.583 %",2.29%
O=C(c1c[nH]c(=O)cn1)N1CCC(c2ccn3ncc(C(=O)N4CCCCC4)c3c2)CC1,inhibition,"Concentration 99.5 uM, Number of replicates 2.0, Standard deviation 1.433 %",45.8%
Clc1cnc(OCCNc2ncnc3[nH]ccc23)c(Cl)c1,inhibition,"Concentration 50.0 uM, Number of replicates 2.0, Standard deviation 2.048 %",-4.3%
same,inhibition,"Concentration 100.0 uM, Number of replicates 2.0, Standard deviation 3.465 %",-7.69%
Cc1[nH]c2ncnc(NC(=O)c3ncn(-c4ccccc4)n3)c2c1C,inhibition,"Concentration 50.0 uM, Number of replicates 2.0, Standard deviation 1.407 %",7.1%
Cc1[nH]c2ncnc(NC(=O)CCc3ccccc3)c2c1C,inhibition,"Concentration 50.0 uM, Number of replicates 2.0, Standard deviation 2.066 %",5.02%
